Source: patent publication US20240252677A1, “ONE-COMPONENT DELIVERY SYSTEM FOR NUCLEIC ACIDS” (The Trustees of the University of Pennsylvania, priority 2021, published 2024)

Tests used:
[1] = pKa measurements of individual IAJD molecules by titration; assay type: physicochemical; details: ethanol saturated with NaCl, titrated with 0.1 M aqueous HCl, titration
How it was run: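 pKa derived by half-equivalence-point analysis of a pH-meter titration curve: 0.1 M HCl added in 7.5 μL increments to a 1.5 mg/mL solution of each molecule in ethanol saturated with NaCl.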

[2] = Dimensions (size, PDI) of DNPs co-assembled from IAJDs and Luc-mRNA by DLS; assay type: physicochemical
How it was run: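 Hydrodynamic size and PDI were read by dynamic light scattering at 23 °C, 175° backscatter, 633 nm. Particles formed by fast injection of ethanolic IAJD stock (80 mg/mL) into nucleoside-modified luciferase mRNA (stock 4.0 mg/mL) in 10 mM acetate pH 4.0, 5 s vortex.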

liver = assay: In vivo mRNA delivery, IVIS imaging of organs: liver; parameters: species or system mice; key to Organs with luminescence: liver: strong: Strong meant the luminescence intensity in that organ was relatively high, compared to other organs; weak: Weak meant the luminescence intensity in that organ was relatively low, compared to other organs; details: for Organs with luminescence: liver (weak/strong): Table 14; for Organs with luminescence: liver: Table 17, mice, IVIS, 4-6 h after injection, intensity relative to other organs
Experimental: (§1) The exposure time was 1 min.
(§2) Tissue luminescence signal was measured on the IVIS imaging system using an exposure time of 60 seconds using medium binning (binning=8) to ensure that the signal obtained was within operative detection range. […] Bioluminescence imaging was performed as described above.
(§3) Tissue luminescence signal was measured on the IVIS imaging system using a certain exposure time (60, 30 or 15 seconds) and medium binning (binning=8) to ensure that the signal obtained was within operative detection range.

spleen = assay: In vivo mRNA delivery, IVIS imaging of organs: spleen; parameters: species or system mice; key to Organs with luminescence: spleen: strong: Strong meant the luminescence intensity in that organ was relatively high, compared to other organs; weak: Weak meant the luminescence intensity in that organ was relatively low, compared to other organs; details: for Organs with luminescence: spleen (weak/strong): Table 14; for Organs with luminescence: spleen: Table 17, mice, IVIS, 4-6 h after injection, intensity relative to other organs
Experimental: as §1, §2, §3

[3] = Stability of DNPs by DLS after storage at 5° C.; assay type: physicochemical; parameters: key to Original size distribution type (DLS curve) / Size distribution type (DLS curve): U: DLS curve showed unimodal size distribution; B: DLS curve showed bimodal size distribution; M: DLS curve showed multimodal size distribution; details: for pH Sample: DNPs: IAJD 4.0 mg/mL + Luc-mRNA 0.1 mg/mL, injection in acetate buffer pH 4.00; for PDI / Size (d, nm) / Original size distribution type (DLS curve): IAJD 4.0 mg/mL + Luc-mRNA 0.1 mg/mL; for PDI / Size (d, nm): acetate buffer; for Original size distribution type (DLS curve): before storage, acetate buffer pH 4.00
Experimental: The stability of the DNPs as assayed by DLS. All the samples are prepared in acetate buffer. The stabilities of the constructs were ranked: Excellent (in bold)—the original sizes and distribution remains almost the same after storage; Good—the original relatively big sizes became smaller or broad size distribution became narrower; Not stable—the original relatively big sizes or broad size distribution remained almost the similar level, or the original relatively small sizes became bigger or narrow size distribution became broader.

[4] = Table 15, individual IAJD molecule
[5] = Table 12, DNPs, IAJD 4 mg/mL + Luc-mRNA 0.10 mg/mL, acetate buffer 10 mM pH 4.0
[6] = Table 13, DNPs, IAJD 4 mg/mL + Luc-mRNA 0.10 mg/mL, acetate buffer pH 4.0
[7] = Table 14, DNPs, IAJD 4 mg/mL + Luc-mRNA 0.10 mg/mL, acetate buffer pH 4.0
[8] = Table 16, DNPs from IAJD 4 mg/mL and Luc-mRNA 0.10 mg/mL by injection in acetate buffer (10 mM, pH 4.0)
[9] = Table 17, DNPs used in vivo, IAJD 4 mg/mL, Luc-mRNA 0.10 mg/mL, acetate pH 4.0

Row | SMILES | pKa [1, 4] | PDI [2, 5] | Size (d, nm) [2, 5] | PDI [2, 6] | Size (d, nm) [2, 6] | PDI [2, 7] | Size (d, nm) [2, 7] | Organs with luminescence: liver (weak/strong) (liver; imaging 5 h after injection) | Organs with luminescence: spleen (weak/strong) (spleen; imaging 5 h after injection) | pKa ([1]; individual IAJD molecules) | pH Sample [3] | Original size distribution type (DLS curve) [3] | PDI [2, 8] | Size (d, nm) [2, 8] | PDI [2, 9] | Size (d, nm) [2, 9] | Organs with luminescence: spleen (spleen) | other results
1 | CCCCCCCCCCCCOc1cc(COC(=O)CCCN2CCN(C)CC2)cc(OCCCCCCCCCCCC)c1OCCCCCCCCCCCC [IAJD 79, 3,4,5-Tris(dodecyloxy)benzyl 4-(4-methylpiperazin-1-yl)butanoate] | 6.25 | 0.763 | 352 nm | 0.763 | 352 nm | 0.763 | 352 nm |  |  |  |  |  |  |  |  |  |  | Organs with luminescence: liver (weak/strong) (liver; imaging 6 h after injection): liver (weak),; Organs with luminescence: spleen (weak/strong) (spleen; imaging 6 h after injection): spleen (strong)
2 | CCCCCCCCCCCCOCC(COCCCCCCCCCCCC)(COCCCCCCCCCCCC)COC(=O)CCCN1CCN(CCO)CC1 [IAJD 83, 3-(Dodecyloxy)-2,2-bis((dodecyloxy)methyl)propyl 4-(4-(2-hydroxyethyl)piperazin-1-yl)butanoate] | 6.3 | 0.430 | 143 nm | 0.430 | 143 nm | 0.430 | 143 nm | liver (weak), | spleen (strong) |  |  |  |  |  |  |  |  | 
3 | CCCCCCCCCCCCOc1cc(COC(=O)CCN2CCN(C)CC2)cc(OCCCCCCCCCCCC)c1 [IAJD 84, 3,5-Bis(dodecyloxy)benzyl 3-(4-methylpiperazin-1-yl)propanoate] | 6.19 | 0.303 | 171 nm | 0.303 | 171 nm | 0.303 | 171 nm | liver (weak), | spleen (strong) |  |  |  |  |  |  |  |  | 
4 | CCCCCCCOC(=O)CCCCOc1cc(COC(=O)CCCN2CCN(C)CC2)cc(OCCCCC(=O)OCCCCCCC)c1 [IAJD 85, Diheptyl 5,5′-((5-(((4-(4-methylpiperazin-1-yl)butanoyl)oxy)methyl)-1,3-phenylene)bis(oxy)) dipentanoate] | 6.21 | 0.250 | 102 nm | 0.250 | 102 nm | 0.250 | 102 nm | liver (weak), | spleen (strong) |  |  |  |  |  |  |  |  | 
5 | CCCCC(CC)COC(=O)CCCCOc1cc(COC(=O)CCCN2CCN(CCO)CC2)cc(OCCCCC(=O)OCC(CC)CCCC)c1 (stereo not shown) [IAJD 95] | 6.33 | 0.352 | 105 nm | 0.352 | 105 nm | 0.352 | 105 nm |  |  |  |  |  |  |  |  |  |  | Organs with luminescence: liver (weak/strong) (liver; imaging 6 h after injection): liver (weak),; Organs with luminescence: spleen (weak/strong) (spleen; imaging 6 h after injection): spleen (strong)
6 | CCCCC(CC)COc1cc(COC(=O)CCCN2CCN(C)CC2)cc(OCC(CC)CCCC)c1OCC(CC)CCCC (stereo not shown) [IAJD 96, 3,4,5-Tris((2-ethylhexyl)oxy)benzyl 4-(4-methylpiperazin-1-yl)butanoate] | 6.32 | 0.402 | 139 nm | 0.402 | 139 nm | 0.402 | 139 nm | liver (weak), | spleen (strong) |  |  |  |  |  |  |  |  | 
7 | CCCCC(CC)COc1cc(COC(=O)CCCN2CCN(CCO)CC2)cc(OCC(CC)CCCC)c1OCC(CC)CCCC (stereo not shown) [IAJD 97, 3,4,5-Tris((2-ethylhexyl)oxy)benzyl 4-(4-(2-hydroxyethyl)piperazin-1-yl)butanoate] | 6.46 | 0.482 | 204 nm | 0.482 | 204 nm | 0.482 | 204 nm | liver (weak), | spleen (strong) |  |  |  |  |  |  |  |  | 
8 | CCCCCCCCCCCOc1cc(COC(=O)CCCN2CCN(C)CC2)cc(OCCCCCCCCCC)c1 [IAJD 114, 3-(Decyloxy)-5-(undecyloxy)benzyl 4-(4-methylpiperazin-1-yl)butanoate] |  |  |  |  |  |  |  |  |  | 6.43 | 4.46 | (U) | 0.351 | 105 nm | 0.351 | 105 nm | spleen (strong) | Size distribution type (DLS curve) ([3]; after 75 days at 5° C.): (B); PDI ([3]; after 75 days at 5° C.): 0.369; Size (d, nm) ([3]; after 75 days at 5° C.): 107 nm; Organs with luminescence: liver (liver): liver (weak),
9 | CCCCCCCCCCCCCOc1cc(COC(=O)CCCN2CCN(C)CC2)cc(OCCCCCCCCCCC)c1 [IAJD 116, 3-(Tridecyloxy)-5-(undecyloxy)benzyl 4-(4-methylpiperazin-1-yl)butanoate] |  |  |  |  |  |  |  |  |  | 6.51 | 4.47 | (U) | 0.264 | 150 nm | 0.264 | 150 nm | spleen (strong) | Size distribution type (DLS curve) ([3]; after 62 days at 5° C.): (U); PDI ([3]; after 62 days at 5° C.): 0.272; Size (d, nm) ([3]; after 62 days at 5° C.): 168 nm; Organs with luminescence: liver (liver): liver (weak),
10 | CCCCCCCCCCCCCOc1cc(COC(=O)CCCN2CCN(CCO)CC2)cc(OCCCCCCCCCCC)c1 [IAJD 117, 3-(Tridecyloxy)-5-(undecyloxy)benzyl 4-(4-(2-hydroxyethyl)piperazin-1-yl)butanoate] |  |  |  |  |  |  |  |  |  | 6.49 | 4.40 | (B) | 0.367 | 255 nm | 0.367 | 255 nm | spleen (strong) | Size distribution type (DLS curve) ([3]; after 70 days at 5° C.): (B); PDI ([3]; after 70 days at 5° C.): 0.312; Size (d, nm) ([3]; after 70 days at 5° C.): 323 nm; Organs with luminescence: liver (liver): liver (weak),
11 | CCCCCCCCCCCCCCCOc1cc(COC(=O)CCCN2CCN(CCO)CC2)cc(OCCCCCCCC)c1 [IAJD 138, 3-(Octyloxy)-5-(pentadecyloxy)benzyl 4-(4-(2-hydroxyethyl)piperazin-1-yl)butanoate] |  |  |  |  |  |  |  |  |  | 6.62 | 4.52 | (U) | 0.305 | 99 nm | 0.305 | 99 nm | spleen (strong) | Size distribution type (DLS curve) ([3]; after 35 days at 5° C.): (B); PDI ([3]; after 35 days at 5° C.): 0.261; Size (d, nm) ([3]; after 35 days at 5° C.): 112 nm
12 | CCCCCCCCCCCOc1cc(COC(=O)c2cc(OCCOCCOCCCC(=O)CCCN3CCCCC3)c(OCCOCCOCCOCc3ccccc3)c(OCCOCCOCCOC(=O)CCCN3CCCCC3)c2)cc(OCC(CC)CCCC)c1 (stereo not shown) [IAJD 155] |  |  |  |  |  |  |  |  |  | 7.4 | 4.93 | (U) | 0.279 | 83 nm | 0.279 | 83 nm | spleen (weak) | Size distribution type (DLS curve) ([3]; after 19 days at 5° C.): (U); PDI ([3]; after 19 days at 5° C.): 0.259; Size (d, nm) ([3]; after 19 days at 5° C.): 86 nm
